Source: PubChem BioAssay (NCI)
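At the GI50, growth is halved. Definition used: TGI = concentration required for complete inhibition of growth.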

Legend:
Assay in all cases: NCI-60 cell line screen, 384-well format
786-0 renal = test system: 786-0 renal
A498 renal = test system: A498 renal
A549 NSCLC = test system: A549 NSCLC
ACHN renal = test system: ACHN renal
BT-549 breast = test system: BT-549 breast
CAKI-1 renal = test system: CAKI-1 renal
COLO 205 colon = test system: COLO 205 colon
DU-145 prostate = test system: DU-145 prostate
EKVX NSCLC = test system: EKVX NSCLC
HCT-116 colon = test system: HCT-116 colon
HCT-15 colon = test system: HCT-15 colon
HL-60(TB) leukemia = test system: HL-60(TB) leukemia
HOP-62 NSCLC = test system: HOP-62 NSCLC
HOP-92 NSCLC = test system: HOP-92 NSCLC
HS 578T breast = test system: HS 578T breast
HT29 colon = test system: HT29 colon
IGROV1 ovarian = test system: IGROV1 ovarian
K-562 leukemia = test system: K-562 leukemia
KM12 colon = test system: KM12 colon
M14 melanoma = test system: M14 melanoma
MALME-3M melanoma = test system: MALME-3M melanoma
MCF7 breast = test system: MCF7 breast
MDA-MB-231 breast = test system: MDA-MB-231 breast
MDA-MB-435 melanoma = test system: MDA-MB-435 melanoma
MDA-MB-468 breast = test system: MDA-MB-468 breast
MOLT-4 leukemia = test system: MOLT-4 leukemia
NCI-H226 lung = test system: NCI-H226 lung
NCI-H23 lung = test system: NCI-H23 lung
NCI-H322M lung = test system: NCI-H322M lung
NCI-H460 NSCLC = test system: NCI-H460 NSCLC
NCI-H522 lung = test system: NCI-H522 lung
OVCAR-3 ovarian = test system: OVCAR-3 ovarian
OVCAR-4 ovarian = test system: OVCAR-4 ovarian
OVCAR-5 ovarian = test system: OVCAR-5 ovarian
OVCAR-8 ovarian = test system: OVCAR-8 ovarian
PC-3 prostate = test system: PC-3 prostate
RXF 393 renal = test system: RXF 393 renal
SF-268 CNS = test system: SF-268 CNS
SF-295 CNS = test system: SF-295 CNS
SF-539 CNS = test system: SF-539 CNS
SK-MEL-2 melanoma = test system: SK-MEL-2 melanoma
SK-MEL-28 melanoma = test system: SK-MEL-28 melanoma
SK-MEL-5 melanoma = test system: SK-MEL-5 melanoma
SK-OV-3 ovarian = test system: SK-OV-3 ovarian
SN12C renal = test system: SN12C renal
SNB-19 CNS = test system: SNB-19 CNS
SNB-75 CNS = test system: SNB-75 CNS
SR leukemia = test system: SR leukemia
SW-620 colon = test system: SW-620 colon
T-47D breast = test system: T-47D breast
TK-10 renal = test system: TK-10 renal
U251 glioblastoma = test system: U251 glioblastoma
UACC-257 melanoma = test system: UACC-257 melanoma
UACC-62 melanoma = test system: UACC-62 melanoma
UO-31 renal = test system: UO-31 renal

In the case of `CCc1c2c(nc3ccc(OC(=O)N4CCC(N5CCCCC5)CC4)cc13)-c1cc3c(c(=O)n1C2)COC(=O)[C@]3(O)CC`, the GI50 ([…]-0 renal) is reported as 3.02 µM, the TGI (786-0 renal) is reported as 10.4 µM and the GI50 (A498 renal) is reported as 5.29 µM. It also gave a TGI (A498 renal) of 19.9 µM, a GI50 (A549 NSCLC) of 8.58 µM and a TGI (A549 NSCLC) of 94.1 µM. For the same molecule, the GI50 (ACHN renal) was 2.11 µM, the TGI (ACHN renal) was 5.05 µM and the GI50 (BT-549 breast) was 2.51 µM. It also gave a TGI (BT-549 breast) of 13.4 µM, a GI50 (CAKI-1 renal) of 3.08 µM and a TGI (CAKI-1 renal) of over 100 µM. For the same molecule, the GI50 (COLO 205 colon) was 2.7 µM, the TGI (COLO 205 colon) was 21 µM and the GI50 (DU-145 prostate) was 2.56 µM. It also gave a TGI (DU-145 prostate) of 9.11 µM, a GI50 (EKVX NSCLC) of 13.5 µM and a TGI (EKVX NSCLC) of 45 µM. For the same molecule, the GI50 (HCT-116 colon) was 1.84 µM, the TGI (HCT-116 colon) was 15.5 µM and the GI50 (HCT-15 colon) was 5.87 µM. For the same molecule, the TGI (HCT-15 colon) was 24.1 µM, the GI50 (HL-60(TB) leukemia) was 1.62 µM and the TGI (HL-60(TB) leukemia) was 3 µM. It also gave a GI50 (HOP-62 NSCLC) of 1.57 µM, a TGI (HOP-62 NSCLC) of 4.42 µM and a GI50 (HOP-92 NSCLC) of 6.81 µM. For the same molecule, the TGI (HOP-92 NSCLC) was 43.9 µM, the GI50 (HS 578T breast) was 1.69 µM and the TGI (HS 578T breast) was 17.4 µM. For the same molecule, the GI50 (HT29 colon) was 6.08 µM, the TGI (HT29 colon) was 19.7 µM and the GI50 (IGROV1 ovarian) was 10.3 µM. It also gave a TGI (IGROV1 ovarian) of 29.1 µM, a GI50 (K-562 leukemia) of 3.12 µM and a TGI (K-562 leukemia) of 20.8 µM. It also gave a GI50 (KM12 colon) of 2.04 µM, a TGI (KM12 colon) of 10.7 µM and a GI50 (M14 melanoma) of 4.12 µM. The TGI (M14 melanoma) was 26 µM, the GI50 (MALME-3M melanoma) was 10.7 µM and the TGI (MALME-3M melanoma) was 36.2 µM. The GI50 (MCF7 breast) was 1.3 µM, the TGI (MCF7 breast) was 14.8 µM and the GI50 (MDA-MB-231 breast) was 16.9 µM. For the same molecule, the TGI (MDA-MB-231 breast) was over 100 µM, the GI50 (MDA-MB-435 melanoma) was 10.9 µM and the TGI (MDA-MB-435 melanoma) was 25.7 µM. For the same molecule, the GI50 (MDA-MB-468 breast) was 0.731 µM, the TGI (MDA-MB-468 breast) was 3.01 µM and the GI50 (MOLT-4 leukemia) was 0.153 µM. For the same molecule, the TGI (MOLT-4 leukemia) was 0.301 µM, the GI50 (NCI-H226 lung) was 3.43 µM and the TGI (NCI-H226 lung) was 18.8 µM. It also gave a GI50 (NCI-H23 lung) of 2.71 µM, a TGI (NCI-H23 lung) of 9.66 µM and a GI50 (NCI-H322M lung) of 16 µM. For the same molecule, the TGI (NCI-H322M lung) was 42.3 µM, the GI50 (NCI-H460 NSCLC) was 4.26 µM and the TGI (NCI-H460 NSCLC) was 24.5 µM. For the same molecule, the GI50 (NCI-H522 lung) was 1.85 µM, the TGI (NCI-H522 lung) was 16.7 µM and the GI50 (OVCAR-3 ovarian) was 1.45 µM. For the same molecule, the TGI (OVCAR-3 ovarian) was 14.2 µM, the GI50 (OVCAR-4 ovarian) was 21.5 µM and the TGI (OVCAR-4 ovarian) was 59.8 µM. The GI50 (OVCAR-5 ovarian) was 14.9 µM, the TGI (OVCAR-5 ovarian) was 34.7 µM and the GI50 (OVCAR-8 ovarian) was 4.03 µM. For the same molecule, the TGI (OVCAR-8 ovarian) was 54.7 µM, the GI50 (PC-3 prostate) was 12.1 µM and the TGI (PC-3 prostate) was 66.5 µM. For the same molecule, the GI50 (RXF 393 renal) was 0.767 µM, the TGI (RXF 393 renal) was 5.45 µM and the GI50 (SF-268 CNS) was 1.07 µM. It also gave a TGI (SF-268 CNS) of 10.2 µM, a GI50 (SF-295 CNS) of 1.89 µM and a TGI (SF-295 CNS) of 4.34 µM. For the same molecule, the GI50 (SF-539 CNS) was 2.08 µM, the TGI (SF-539 CNS) was 5.14 µM and the GI50 (SK-MEL-2 melanoma) was 16.2 µM. For the same molecule, the TGI (SK-MEL-2 melanoma) was 40.3 µM, the GI50 (SK-MEL-28 melanoma) was 7.12 µM and the TGI (SK-MEL-28 melanoma) was 36.8 µM. It also gave a GI50 (SK-MEL-5 melanoma) of 2.28 µM, a TGI (SK-MEL-5 melanoma) of 10.8 µM and a GI50 (SK-OV-3 ovarian) of 2.91 µM. For the same molecule, the TGI (SK-OV-3 ovarian) was 16.4 µM, the GI50 (SN12C renal) was 2.58 µM and the TGI (SN12C renal) was 7.58 µM. It also gave a GI50 (SNB-19 CNS) of 4.15 µM, a TGI (SNB-19 CNS) of over 100 µM and a GI50 (SNB-75 CNS) of 2.3 µM. For the same molecule, the TGI (SNB-75 CNS) was 8.61 µM, the GI50 (SR leukemia) was 0.15 µM and the TGI (SR leukemia) was 0.299 µM. For the same molecule, the GI50 (SW-620 colon) was 0.851 µM, the TGI (SW-620 colon) was 18.1 µM and the GI50 (T-47D breast) was 3.53 µM. It also gave a TGI (T-47D breast) of 41 µM, a GI50 (TK-10 renal) of 9.46 µM and a TGI (TK-10 renal) of 38.7 µM. The GI50 (U251 glioblastoma) was 2.11 µM, the TGI (U251 glioblastoma) was 11.8 µM and the GI50 (UACC-257 melanoma) was 7.82 µM. The TGI (UACC-257 melanoma) was 29.3 µM, the GI50 (UACC-62 melanoma) was 1.21 µM and the TGI (UACC-62 melanoma) was 7.79 µM. The GI50 (UO-31 renal) was 8.09 µM and the TGI (UO-31 renal) was 41.2 µM.
